Where only a bound is given, the exact number is not on record here.

The test system of data set [1] is C2O4^2− transport, MDCK cells. As to the kind of experiment: In vitro litholytic activity: C2O4^2− transport inhibition, Transwell chamber with MDCK cells. In kind it is cell-based, canine. Conditions: Canis lupus familiaris; 100 μmol/L, MDCK cells in Transwell; mean ± SD of three replicates; read-out: Transport Inhibition Rate (%) C2O4^2−. The procedure, abridged: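 MDCK monolayers in Transwell upper chamber, used once resistance ≥300 Ω cm^2, treated 24 h with compounds at 100 μmol/L or saline. CaC2O4 (30 mmol/L) then added above, PBS below; lower-chamber Ca^2+ and C2O4^2− measured by kit at 0.5, 1, 2, 3 h, inhibition rate from OD versus blank.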

The next data set has as its system MDCK cells. As to the kind of experiment: MTT cytotoxicity assay on MDCK cells. In kind it is cell-based, canine. Particulars: Canis lupus familiaris, 100 μmol/L, 24 h, mean ± SD of three replicates, read-out: Growth Inhibition Rate (%). The procedure, abridged:
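MDCK cells at 10^4/well, grown 24 h, exposed 24 h to compound at 100 μmol/L (saline control; hydrochlorothiazide 100 μmol/L reference). MTT 4 h, DMSO solubilization, OD 490 nm; growth inhibition % = (ODblank − ODexperimental)/ODblank × 100.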
In general terms: Formazan colour is commonly taken as a measure of viable cells.

For data set [2], the system named is Cl^− transport, MDCK cells. As to the kind of experiment: In vitro diuretic activity: Cl^− transport inhibition, Transwell chamber seeded with MDCK cells. In kind it is cell-based, canine. Conditions: Canis lupus familiaris; 100 μmol/L, MDCK cells in Transwell; mean ± SD of three replicates; negative = promotion; read-out: Transport Inhibition Rate (%) Cl^−. The procedure, abridged: (§1)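 MDCK monolayers on Transwell inserts (resistance ≥300 Ω cm^2) exposed apically to compounds at 100 μmol/L for 24 h. Then 15 mg/mL NaCl added to upper chamber; Na^+ and Cl^− in lower fluid measured by kit OD at 0.5, 1, 2 and 3 h. Inhibition % = (ODblank − ODexperimental)/ODblank × 100, blank = normal saline.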

The subject of another data set is mice. Set-up: method as in PMID 32602352. Particulars: cited from earlier work.
The subject of data set [3] is Ca^2+ transport, MDCK cells. As to the kind of experiment: In vitro litholytic activity: Ca^2+ transport inhibition, Transwell chamber with MDCK cells. Conditions: Canis lupus familiaris, 100 μmol/L, mean ± SD of three replicates, read-out: Transport Inhibition Rate (%) Ca^2+. In kind it is cell-based, canine.
Data set [4] deals with Na^+ transport, MDCK cells. As to the kind of experiment: In vitro diuretic activity: Na^+ transport inhibition, Transwell chamber seeded with MDCK cells. The format is cell-based, canine. Conditions: 100 μmol/L, MDCK cells in Transwell, mean ± SD of three replicates, negative = promotion; for inhibition at 100 µM: Canis lupus familiaris, MDCK, read-out: Transport Inhibition Rate (%) Na^+. The procedure, abridged: as §1

As a reminder, the inhibition is the change of the read-out against control, counted positive when it falls. For `COc1cc(C)c(C(=O)Oc2cc(C)c(C(=O)O)c(O)c2C)c(O)c1C` [Compound 1, Barbatic acid], the inhibition at 100 µM in data set [1] is 2.97 ± 2.21%; in the data set on MDCK cells it was under 0%; in data set [2], 2.34 ± 1.2%; in data set [3], 8.8 ± 0.18%; in data set [4] it was 12.3 ± 0.5%. Also, the “diuretic effect on mice” value with mice is “had a diuretic effect on mice”.

In general, melting point refers to the temperature of the solid-liquid transition. In turn, `CCCOc1cc(C)c(C(=O)Oc2cc(C)c(C(=O)OCC)c(O)c2C)c(O)c1C` [Compound 6p, 4-(ethoxycarbonyl)-3-hydroxy-2,5-dimethylphenyl 2-hydroxy-3,6-dimethyl-4-propoxybenzoate] yielded a melting point of 160 to 163 °C. Besides, in data set [1], the inhibition at 100 µM is 4.29 ± 0.24%. In the data set with MDCK cells, the inhibition at 100 µM is under 0%. Also, the inhibition at 100 µM in data set [2] was -18.38 ± 0.15%. In data set [3], the inhibition at 100 µM amounted to 4.79 ± 0.46%. Moreover, in data set [4], the inhibition at 100 µM was -12.2 ± 0.45%.

`CCCOC(=O)c1c(C)cc(OC(=O)c2c(C)cc(OCCC)c(C)c2O)c(C)c1O` [Compound 6q, 3-hydroxy-2,5-dimethyl-4-(propoxycarbonyl)phenyl 2-hydroxy-3,6-dimethyl-4-propoxybenzoate] showed a melting point of 126 to 130 °C. Also, in data set [1], the inhibition at 100 µM was -26 ± 4.17%. For the same compound, the inhibition at 100 µM in the data set on MDCK cells was under 0%. Moreover, the inhibition at 100 µM in data set [2] was 11.6 ± 2.2%. Also, the inhibition at 100 µM in data set [3] stood at 4.61 ± 0.32%. In data set [4], the inhibition at 100 µM was determined as 9.39 ± 0.25%.

The compound `C=CCOC(=O)c1c(C)cc(OC(=O)c2c(C)cc(OCCC)c(C)c2O)c(C)c1O` [Compound 6r, allyl 2-hydroxy-4-(2-hydroxy-3,6-dimethyl-4-propoxybenzoyloxy)-3,6-dimethylbenzoate] yielded a melting point of 98 to 111 °C. Also, in data set [1], the inhibition at 100 µM stood at 9.67 ± 4.6%. Also, in the data set with MDCK cells, the inhibition at 100 µM is under 0%. In addition, in data set [2], the inhibition at 100 µM was -10.3 ± 1.4%. In data set [3], the inhibition at 100 µM was found to be 5.85 ± 0.36%. Besides, in data set [4], the inhibition at 100 µM was determined as 1.14 ± 1.25%.

`CCCOc1cc(C)c(C(=O)Oc2cc(C)c(C(=O)OCC#N)c(O)c2C)c(O)c1C` [Compound 6s, 4-((cyanomethoxy)carbonyl)-3-hydroxy-2,5-dimethylphenyl 2-hydroxy-3,6-dimethyl-4-propoxybenzoate] registered a melting point of 135 to 138 °C. In data set [1], the inhibition at 100 µM is 15.7 ± 1.13%. Moreover, the inhibition at 100 µM with MDCK cells was under 0%. In data set [2], the inhibition at 100 µM was -6.21 ± 0.3%. For the same compound, the inhibition at 100 µM in data set [3] is -1.74 ± 0.12%. In data set [4], the inhibition at 100 µM is -27.9 ± 0.5%.

Regarding `CCCOc1cc(C)c(C(=O)Oc2cc(C)c(C(=O)OC(C)C)c(O)c2C)c(O)c1C` [Compound 6t, 3-hydroxy-4-(isopropoxycarbonyl)-2,5-dimethylphenyl 2-hydroxy-3,6-dimethyl-4-propoxybenzoate], the melting point lay in the range of 112 to 115 °C. Also, in data set [1], the inhibition at 100 µM amounted to 11.9 ± 5.83%. The inhibition at 100 µM in the data set with MDCK cells was determined as 1.42%. For the same compound, the inhibition at 100 µM in data set [2] is -44.1 ± 3.5%. Moreover, in data set [3], the inhibition at 100 µM is -1.74 ± 0.29%. In addition, in data set [4], the inhibition at 100 µM was -37.6 ± 0.55%.

As for `CCCOc1cc(C)c(C(=O)Oc2cc(C)c(C(=O)OCc3ccccc3)c(O)c2C)c(O)c1C` [Compound 6u, benzyl 2-hydroxy-4-(2-hydroxy-3,6-dimethyl-4-propoxybenzoyloxy)-3,6-dimethylbenzoate], the melting point lay within 111 to 114 °C. The inhibition at 100 µM in data set [1] stood at 22.3 ± 5.04%. Also, the inhibition at 100 µM in the data set with MDCK cells was under 0%. Further, in data set [2], the inhibition at 100 µM was -15.9 ± 0.55%. For the same compound, the inhibition at 100 µM in data set [3] worked out at 0.77 ± 0.09%. The inhibition at 100 µM in data set [4] is 6.31 ± 2.35%.

For the compound `COC(=O)c1c(C)cc(OC(=O)c2c(C)cc(OC(C)C)c(C)c2O)c(C)c1O` [Compound 6v, 3-hydroxy-4-(methoxycarbonyl)-2,5-dimethylphenyl 2-hydroxy-4-isopropoxy-3,6-dimethylbenzoate], the melting point lay in the range of 60 to 63 °C. Also, the inhibition at 100 µM in data set [1] is -17.9 ± 1.35%. For the same compound, in the data set with MDCK cells, the inhibition at 100 µM was under 0%. Further, in data set [2], the inhibition at 100 µM was -13.55 ± 0.1%. In data set [3], the inhibition at 100 µM was found to be 0.19 ± 0.29%. The inhibition at 100 µM in data set [4] was -9.43 ± 0.75%.

The compound `CCOC(=O)c1c(C)cc(OC(=O)c2c(C)cc(OC(C)C)c(C)c2O)c(C)c1O` [Compound 6w, 4-(ethoxycarbonyl)-3-hydroxy-2,5-dimethylphenyl 2-hydroxy-4-isopropoxy-3,6-dimethylbenzoate] gave a melting point of 62 to 65 °C. Moreover, the inhibition at 100 µM in data set [1] turned out to be 19 ± 2.64%. The inhibition at 100 µM with MDCK cells amounted to 0.7 ± 0.3%. Moreover, the inhibition at 100 µM in data set [2] is -80.4 ± 1.2%. Moreover, the inhibition at 100 µM in data set [3] came to 1.55 ± 0.11%. For the same compound, in data set [4], the “Transport Inhibition Rate (%) Na^+” value is 33.11 ± 0.55% and the inhibition at 100 µM is over 30%.

`CCCOC(=O)c1c(C)cc(OC(=O)c2c(C)cc(OC(C)C)c(C)c2O)c(C)c1O` [Compound 6x, 3-hydroxy-2,5-dimethyl-4-(propoxycarbonyl)phenyl 2-hydroxy-4-isopropoxy-3,6-dimethylbenzoate] displayed a melting point of 117 to 120 °C. Besides, in data set [1], the inhibition at 100 µM is -5.42 ± 2.83%. Further, the inhibition at 100 µM in the data set with MDCK cells was under 0%. Moreover, in data set [2], the inhibition at 100 µM was -1.92 ± 0.25%. In data set [3], the inhibition at 100 µM turned out to be 2.74 ± 0.22%. Also, in data set [4], the inhibition at 100 µM was -1.11 ± 1.75%.

`Cc1cc(OC(=O)c2c(C)cc(OC(C)C)c(C)c2O)c(C)c(O)c1C(=O)OC(C)C` [Compound 6y, 3-hydroxy-4-(isopropoxycarbonyl)-2,5-dimethylphenyl 2-hydroxy-4-isopropoxy-3,6-dimethylbenzoate] registered a melting point of 140 to 143 °C. In addition, the inhibition at 100 µM in data set [1] was -26.3 ± 5.41%. The inhibition at 100 µM with MDCK cells was under 0%. In addition, the inhibition at 100 µM in data set [2] was -43.3 ± 3.25%. For the same compound, in data set [3], the inhibition at 100 µM was 3.47 ± 0.3%. The inhibition at 100 µM in data set [4] came to 29.4 ± 1.85%.

Consider `C=CCOC(=O)c1c(C)cc(OC(=O)c2c(C)cc(OC(C)C)c(C)c2O)c(C)c1O` [Compound 6z, allyl 2-hydroxy-4-(2-hydroxy-4-isopropoxy-3,6-dimethylbenzoyloxy)-3,6-dimethylbenzoate], for which the melting point fell in the range of 111 to 114 °C. In data set [1], the inhibition at 100 µM was 0.23 ± 2.16%. The inhibition at 100 µM in the data set with MDCK cells is 2.47 ± 0.5%. Moreover, the inhibition at 100 µM in data set [2] is -32.6 ± 3.1%. Moreover, the inhibition at 100 µM in data set [3] is -2.56 ± 0.17%. Moreover, in data set [4], the inhibition at 100 µM was -22.7 ± 1.05%.

(Values after PMC10222548, “Semisynthesis, Biological Evaluation and Molecular Docking Studies of Barbatic Acid Derivatives as Novel Diuretic Candidates” (Molecules, 2023).)
